According to PubChem BioAssay (NCI):
Values joined by “and” are separate entries in the source; they are usually repeats but may differ in a detail not shown here. Equal entries are not always repeated.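 The compound was tested at five concentrations on cells cultured in 96-well plates, with a 48-hour exposure period. GI50: concentration for 50% inhibition of growth. Definition used: TGI = concentration required for complete inhibition of growth.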

What was measured:
Test in all cases: DTP human tumour cell line panel, 48 h
OVCAR-4 ovarian = system: OVCAR-4 ovarian
M14 melanoma = system: M14 melanoma
MCF7 breast = system: MCF7 breast
SK-MEL-5 melanoma = system: SK-MEL-5 melanoma
SR leukemia = system: SR leukemia
RXF 393 renal = system: RXF 393 renal
SF-539 CNS = system: SF-539 CNS
NCI-H460 lung = system: NCI-H460 lung
U251 CNS = system: U251 CNS
NCI-H23 lung = system: NCI-H23 lung

SMILES | GI50 (OVCAR-4 ovarian) | TGI (OVCAR-4 ovarian) | GI50 (M14 melanoma) | TGI (M14 melanoma) | GI50 (MCF7 breast) | TGI (MCF7 breast) [µM] | GI50 (SK-MEL-5 melanoma) | TGI (SK-MEL-5 melanoma) | GI50 (SR leukemia) | TGI (SR leukemia) | GI50 (RXF 393 renal) | TGI (RXF 393 renal) | GI50 (SF-539 CNS) | TGI (SF-539 CNS) | GI50 (NCI-H460 lung) | TGI (NCI-H460 lung) | GI50 (U251 CNS) | TGI (U251 CNS) | GI50 (NCI-H23 lung) | TGI (NCI-H23 lung)
CC[CH2][Sn]([CH2]CC)([O]C(=O)Cc1ccc(F)cc1)[O][Sn]([CH2]CC)([CH2]CC)[O]C(=O)Cc1ccc(F)cc1 | 0.276 µM | 1.23 µM | 0.237 µM | 0.622 µM | 0.105 µM | 1.02 | 0.472 µM | 1.47 µM | 0.0781 µM | 5.03 µM | 0.0286 µM | 0.126 µM | 0.274 µM | 0.769 µM | 1.34 µM | 2.7 µM | 0.131 µM | 0.431 µM | 0.0539 µM | 0.276 µM
CNC(=O)CN1CCC(Oc2cc3c(Nc4cccc(Cl)c4F)ncnc3cc2OC)CC1 | 20.1 µM and > 7.05 µM | 98.5 µM and > 10 µM | 18 µM and > 8.27 µM | 34.1 µM and > 10 µM | 13.8 µM and > 5 µM | > 74.5 | 13.4 µM and 4.49 µM | 26.5 µM and > 10 µM | 21.1 µM and 2.19 µM | > 70.1 µM and 8.97 µM | 7.35 µM and 2.37 µM | 27.3 µM and > 6.92 µM | 13.5 µM and > 5.94 µM | 33.4 µM and > 10 µM | 28.1 µM and > 6.73 µM | > 100 µM | 17 µM and > 6.47 µM | 45.9 µM and > 10 µM | 18.2 µM and > 7.11 µM | > 58.5 µM
Nc1nc(-c2cccs2)cs1 |  | > 100 µM |  | > 100 µM |  | > 100 |  | > 100 µM |  | > 100 µM |  | > 100 µM |  | > 100 µM |  | > 100 µM |  | > 100 µM |  | > 100 µM
CCN1CCN(c2ccc(Nc3ncc4ccc5ncn(C(C)C)c5c4n3)nc2)CC1 | 0.273 µM | 0.885 µM | 0.124 µM | 1.34 µM | < 0.0109 µM | 0.848 | 0.153 µM | 0.405 µM | 0.0402 µM |  | 0.0765 µM | 0.248 µM | 0.171 µM | 0.394 µM | 0.0777 µM | 0.68 µM | 0.108 µM | 3.94 µM | 0.211 µM | 0.85 µM
Cn1c(=N)n[n+]([O-])c2ccccc21 |  | 7.55 µM and 5.23 µM |  | 3.7 µM and 3.76 µM |  | 5.32 |  | 3.32 µM and 2.96 µM | 3.87 µM | 14.7 µM and 9.32 µM |  | 36.4 µM |  | 3.67 µM and 2.98 µM | 2.59 µM and 20 µM | 4.53 µM and 37.5 µM |  | 25.3 µM and 24.1 µM | 2.44 µM | 4.4 µM and 6.39 µM
CCN(CC)CC[n+]1cc2cc(OC)c(OC)cc2c2ccc3cc4c(cc3c21)OCO4 | 0.775 µM | 4.16 µM | 0.654 µM | 2.31 µM | 0.317 µM | 2.41 | 1.31 µM | 2.61 µM | 0.248 µM | 2.12 µM | 0.783 µM | 2.45 µM | 1.12 µM | 3.16 µM | 0.288 µM | 1.04 µM | 0.308 µM | 1.29 µM | 0.618 µM | 2.3 µM
Nc1ccc(-c2ccc(-c3nc4cc(Cl)c(Cl)cc4[nH]3)cc2)cc1 | 3.01 µM | > 100 µM | 0.0456 µM | > 37.1 µM | 0.377 µM | > 100 | 1.42 µM | > 100 µM | 0.181 µM | 45.2 µM | 5.71 µM | 38.8 µM | 1.38 µM | > 51.5 µM | 0.878 µM | > 31.9 µM | 12 µM | > 53.1 µM | 20.1 µM | > 100 µM
O=c1ccnc(SCc2ccc(Cl)cc2)[nH]1 |  | > 100 µM |  | > 100 µM |  | > 100 |  | > 100 µM |  | > 100 µM |  | > 100 µM |  | > 100 µM |  | > 100 µM |  | > 100 µM |  | > 100 µM
C=C(CN(C)C)C(=O)c1ccc(Oc2ccccc2)cc1 |  | 20.9 µM |  | 4.02 µM |  | 15.6 |  | 19.8 µM |  | 4.24 µM |  | 7.17 µM |  | 12.2 µM |  | 51.6 µM |  | 23.7 µM |  | 24.9 µM
Nc1nc(-c2ccccc2)cc(-c2ccc(Cl)cc2)c1-c1nc2ccccc2o1 | 13.5 µM | 28 µM | 14.5 µM | 35.4 µM | 2.31 µM | 16.2 | 12.8 µM | 25.4 µM | 3.08 µM | 8.11 µM | 21.5 µM | 44.6 µM | 17.5 µM | 32.3 µM | 7.44 µM | 23.6 µM | 9.2 µM | 21 µM | 23.5 µM | > 100 µM
COc1ccc2nc(-c3cc4c([nH]c5ccccc54)c(-c4ccc(F)c(F)c4)n3)[nH]c2c1 | 6.3 µM | 24 µM | 4.02 µM | 16.9 µM | 3.23 µM | 17.1 | 4.91 µM | 21.9 µM | 1.97 µM | 6.7 µM | 3.46 µM | 13.1 µM | 15.5 µM | 34.6 µM | 2.97 µM | 12.5 µM | 2.77 µM | 10.2 µM | 6.56 µM | 27.5 µM
Cn1sc2ccccc2c1=S |  | 19.4 µM |  | 22.2 µM |  | 7.36 |  | 25.3 µM |  | 38.7 µM |  | 7.95 µM |  | 16.4 µM |  | 32.3 µM |  | 13.5 µM |  | 34.7 µM
CCOCCOC[C@H]1CCCN(c2ccnc3sc(C(N)=O)c(N)c23)C1 | 13.5 µM | > 100 µM | 63.1 µM | > 100 µM | 25.1 µM | > 100 | 4.05 µM | 36.9 µM | 11 µM | > 100 µM | 47.8 µM | > 100 µM | > 100 µM | > 100 µM | > 100 µM | > 100 µM | > 100 µM | > 100 µM | 10.6 µM | > 100 µM
CCOC(=O)N1C=CC(=C2C(=C3C=CN(C(=O)OCC)C=C3)C(=C3C=CN(C(=O)OCC)C=C3)C2=C2C=CN(C(=O)OCC)C=C2)C=C1 |  | > 100 µM |  | > 100 µM |  | > 100 |  | > 100 µM |  | 26.3 µM |  | > 100 µM |  | > 100 µM |  | > 100 µM |  | 91.7 µM |  | > 100 µM
C=C(C)[C@@H]1CC[C@]2(C(N)=O)CC[C@]3(C)[C@H](CC[C@@H]4[C@@]5(C)C/C(=C/c6cccnc6)[C@H](O)C(C)(C)[C@@H]5CC[C@]43C)[C@@H]12 | 3.31 µM | > 100 µM | 4.86 µM | > 100 µM | 2.68 µM | > 100 | 3.23 µM | 12.4 µM | 4.31 µM | > 100 µM | 3.61 µM | 52.5 µM | 4.89 µM | > 100 µM | 4.22 µM | > 100 µM | 4.61 µM | > 100 µM | 4.96 µM | > 100 µM
Cc1ccc2c(c1)C=CC(C#N)N2C(=O)Oc1ccccc1 (configuration not stated) |  | 70.7 µM |  | > 100 µM |  | 40.2 |  | > 100 µM |  | 46.8 µM |  | > 100 µM |  | > 100 µM |  | > 100 µM |  | 66.4 µM |  | 44.5 µM
